The source made the active and inactive calls.
Assays:
[1] = target: T1, Sentrin-specific protease 1 (Homo sapiens, UniProt Q9P0U3); assay: potency of human SENP1 inhibitors, dose response, biochemical, kinetic FRET (AID 651697); format: functional; conditions: read-out: IC50_Mean
T1 sequence (Q9P0U3 whole entry): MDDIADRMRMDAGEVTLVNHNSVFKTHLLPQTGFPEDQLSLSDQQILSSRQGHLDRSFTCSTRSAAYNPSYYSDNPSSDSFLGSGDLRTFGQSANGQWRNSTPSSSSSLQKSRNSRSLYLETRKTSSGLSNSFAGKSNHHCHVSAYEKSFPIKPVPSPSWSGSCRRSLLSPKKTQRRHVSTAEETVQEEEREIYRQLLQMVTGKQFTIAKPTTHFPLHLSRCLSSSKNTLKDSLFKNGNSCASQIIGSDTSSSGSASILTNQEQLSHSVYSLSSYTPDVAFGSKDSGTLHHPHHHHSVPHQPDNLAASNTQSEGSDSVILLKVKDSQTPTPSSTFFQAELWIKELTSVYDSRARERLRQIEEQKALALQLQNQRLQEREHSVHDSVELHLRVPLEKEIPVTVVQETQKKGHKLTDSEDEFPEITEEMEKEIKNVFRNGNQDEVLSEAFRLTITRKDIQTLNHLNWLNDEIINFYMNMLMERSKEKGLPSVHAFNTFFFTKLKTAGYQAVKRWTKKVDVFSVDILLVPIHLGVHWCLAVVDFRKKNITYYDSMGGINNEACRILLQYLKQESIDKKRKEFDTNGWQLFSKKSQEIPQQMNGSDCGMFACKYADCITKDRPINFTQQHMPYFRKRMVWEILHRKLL

[2] = target: T2, Heat shock factor protein 1 (Mus musculus, UniProt P38532); assay: inhibition of MG132-induced HSE-luciferase signal, confirmation, cell-based, NIH3T3, luminescence, dose retest (AID 2382); format: functional;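 note: NIH3T3 fibroblasts with HSF1-driven luciferase reporter stressed by proteasome inhibitor MG132; luminescence from HSF1-driven luciferase expression after 8 hours of MG132 stress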
T2 sequence (P38532 whole entry): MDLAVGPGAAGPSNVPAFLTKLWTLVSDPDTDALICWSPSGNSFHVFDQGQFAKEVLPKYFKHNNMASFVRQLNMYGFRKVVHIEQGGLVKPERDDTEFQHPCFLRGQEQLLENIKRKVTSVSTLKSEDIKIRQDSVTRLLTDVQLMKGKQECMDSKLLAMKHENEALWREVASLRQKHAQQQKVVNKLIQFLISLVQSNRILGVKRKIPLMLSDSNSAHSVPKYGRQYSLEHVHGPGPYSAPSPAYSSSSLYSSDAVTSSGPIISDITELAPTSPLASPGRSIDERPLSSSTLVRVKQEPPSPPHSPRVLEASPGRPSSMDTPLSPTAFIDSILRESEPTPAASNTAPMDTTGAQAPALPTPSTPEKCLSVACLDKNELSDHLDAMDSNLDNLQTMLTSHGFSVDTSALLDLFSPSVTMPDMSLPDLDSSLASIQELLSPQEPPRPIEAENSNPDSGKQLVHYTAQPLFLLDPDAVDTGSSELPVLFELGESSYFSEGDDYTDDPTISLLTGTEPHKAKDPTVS

[3] = target: T1, Sentrin-specific protease 1; assay: Dose response confirmation of small molecule inhibitors of the catalytic domain of the SUMO protease, SENP1 in a FRET assay.; format: functional; conditions: read-out: IC50_Mean
[4] = HeLa cell cytotoxicity, dose response, cytotoxicity control for MgcRacGAP inhibitor project (AID 624300); format: functional
[5] = target: T3, Rac GTPase-activating protein 1 (Homo sapiens, UniProt Q9H0H5); assay: MgcRacGAP GTPase-activating activity inhibitors, confirmation, biochemical, ADP Hunter fluorescence, primary and confirmatory (AID 624330); format: functional
T3 sequence (Q9H0H5 whole entry): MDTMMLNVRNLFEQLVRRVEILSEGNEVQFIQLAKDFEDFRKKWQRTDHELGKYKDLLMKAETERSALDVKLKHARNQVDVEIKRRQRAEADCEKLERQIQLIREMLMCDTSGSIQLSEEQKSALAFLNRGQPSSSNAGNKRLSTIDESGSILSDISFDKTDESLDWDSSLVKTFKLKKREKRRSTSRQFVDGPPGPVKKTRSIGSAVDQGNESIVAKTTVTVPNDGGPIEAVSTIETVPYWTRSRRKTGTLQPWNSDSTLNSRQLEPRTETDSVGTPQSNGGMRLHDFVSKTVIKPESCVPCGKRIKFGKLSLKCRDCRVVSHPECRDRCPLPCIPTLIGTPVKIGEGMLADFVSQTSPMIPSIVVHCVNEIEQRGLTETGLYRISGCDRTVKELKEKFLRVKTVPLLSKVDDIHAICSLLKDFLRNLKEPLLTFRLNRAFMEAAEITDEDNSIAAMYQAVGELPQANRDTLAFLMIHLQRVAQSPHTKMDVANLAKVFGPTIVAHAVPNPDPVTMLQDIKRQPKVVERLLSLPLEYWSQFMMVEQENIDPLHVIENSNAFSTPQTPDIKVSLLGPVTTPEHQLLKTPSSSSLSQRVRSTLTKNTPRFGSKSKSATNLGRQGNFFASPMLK

[6] = target: Fructose-bisphosphate aldolase (Mycobacterium tuberculosis, UniProt P9WQA3); assay: Fluorescence-based biochemical high throughput dose response assay for inhibitors of the fructose-bisphosphate aldolase (FBA) of M. tuberculosis.; format: functional
Fatty acid synthase [7] = target: T4, Fatty acid synthase (Homo sapiens, UniProt P49327); assay: FAS thioesterase domain inhibitors, dose response, biochemical, kinetic fluorescence intensity (AID 624326); format: functional;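 note: rate of fluorescence rise from hydrolysis of a fluorogenic O-methyl fluorescein ester substrate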
Beta Lactamase = Beta Lactamase (Pseudomonas aeruginosa, UniProt Q932Y6); assay: beta-lactamase reporter inhibitor potency, dose response, artefact control for NOD2-RIPK2 interaction inhibitor project, BLA reporter cells, FRET fluorescence (AID 651552); format: functional, cell-based
Fatty acid synthase [8] = target: T4, Fatty acid synthase; assay: FAS thioesterase domain inhibitors, dose response, biochemical, endpoint fluorescence intensity, uHTS hits (AID 624327); format: functional;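 note: fluorescence from hydrolysis of an O-methyl fluorescein acyl ester substrate by the enzyme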
[9] = Fluorescence-based cell-based high throughput dose response assay for inhibitors of the interaction of nucleotide-binding oligomerization domain containing 2 (NOD2) and the receptor-interacting serine-threonine kinase 2 (RIPK2).; format: functional; conditions: Homo sapiens
[10] = intracellular Trypanosoma cruzi inhibitors in host cells – cell-based, plate reader, cherry-pick samples, set 3, dose response (AID 651818); format: functional;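 note: compounds incubated with infected cells for about four days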
[11] = Inhibition of Plasmodium falciparum NF54 Measured in Cell-Based System Using Plate Reader - 2138-11_Inhibitor_Dose_CherryPick_Activity.; format: functional
[12] = L. donovani amastigote growth inhibition, dose response, axenic amastigotes, plate reader, cherry pick (AID 651891); format: functional, cell-based; conditions: Leishmania donovani
[13] = cytotoxicity in L-6 rat myocytes, dose response, cytotoxicity control, cell-based, plate reader, cherry-pick (AID 651896); format: functional
[14] = T. b. rhodesiense proliferation inhibition, dose response, STIB900 strain, plate reader, cherry pick (AID 651893); format: functional, cell-based; conditions: Trypanosoma brucei
[15] = Inhibition of T. cruzi Tulahuen strain amastigotes in L-6 muscle cells Measured in Cell-Based and Microorganism Combination System Using Plate Reader - 2138-03_Inhibitor_Dose_CherryPick_Activity.; format: functional; conditions: Rattus norvegicus, L6
[16] = target: Arf-GAP with SH3 domain, ANK repeat and PH domain-containing protein 1 (Homo sapiens, UniProt Q9ULH1); format: functional;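 note: biochemical fluorescence polarization dose–response screen measuring inhibition of ASAP1; ASAP1 GAP domain stimulating GTP hydrolysis by truncated human ARF1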
[17] = target: ADP-ribosylation factor GTPase-activating protein 1 (Rattus norvegicus, UniProt Q62848); assay: Fluorescence polarization-based biochemical high throughput dose response screening assay to identify inhibitors of ADP-ribosylation factor GTPase activating protein 1 (ARFGAP1).; format: functional
[18] = Counterscreen for inhibitors of Trypanosoma brucei methionyl tRNA synthetase (MetRS): Luminescence-based cell-based high throughput dose response assay to identify compounds that are cytotoxic to Jurkat human T lymphocyte cells.; format: functional
[19] = A549 cell cytotoxicity, dose response, cytotoxicity control, plate reader, cherry-pick, antagonist series (AID 743412); format: functional, cell-based
[20] = MC4R antagonists, dose response, counter-screen for LGR2 antagonist project, cell-based, plate reader, cherry pick (AID 743444); format: functional;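 note: transfected HEK 293 cells stimulated with alpha-MSH peptide; potency of inhibitors of the alpha-MSH evoked signal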
[21] = LGR2 antagonists, dose response, cell-based, HEK293, CRE-luciferase reporter, cherry pick, set 2 (AID 743343); format: functional;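 note: transfected cells were stimulated with diluted bursicon conditioned medium after compound addition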
[22] = target: Luciferin 4-monooxygenase (Photinus pyralis, UniProt P08659); assay: firefly luciferase enzyme inhibitors, dose response, biochemical, luminescence (AID 1891)
Aminopeptidase N = target: T5, Aminopeptidase N (Plasmodium falciparum FcB1/Columbia, UniProt O96935); assay: P. falciparum M1AAP inhibitors, biochemical, fluorogenic H-Leu-NHMec substrate, 1536-well (AID 1445); set-up: species or system Plasmodium falciparum 3D7, 3D7
T5 sequence (O96935 whole entry): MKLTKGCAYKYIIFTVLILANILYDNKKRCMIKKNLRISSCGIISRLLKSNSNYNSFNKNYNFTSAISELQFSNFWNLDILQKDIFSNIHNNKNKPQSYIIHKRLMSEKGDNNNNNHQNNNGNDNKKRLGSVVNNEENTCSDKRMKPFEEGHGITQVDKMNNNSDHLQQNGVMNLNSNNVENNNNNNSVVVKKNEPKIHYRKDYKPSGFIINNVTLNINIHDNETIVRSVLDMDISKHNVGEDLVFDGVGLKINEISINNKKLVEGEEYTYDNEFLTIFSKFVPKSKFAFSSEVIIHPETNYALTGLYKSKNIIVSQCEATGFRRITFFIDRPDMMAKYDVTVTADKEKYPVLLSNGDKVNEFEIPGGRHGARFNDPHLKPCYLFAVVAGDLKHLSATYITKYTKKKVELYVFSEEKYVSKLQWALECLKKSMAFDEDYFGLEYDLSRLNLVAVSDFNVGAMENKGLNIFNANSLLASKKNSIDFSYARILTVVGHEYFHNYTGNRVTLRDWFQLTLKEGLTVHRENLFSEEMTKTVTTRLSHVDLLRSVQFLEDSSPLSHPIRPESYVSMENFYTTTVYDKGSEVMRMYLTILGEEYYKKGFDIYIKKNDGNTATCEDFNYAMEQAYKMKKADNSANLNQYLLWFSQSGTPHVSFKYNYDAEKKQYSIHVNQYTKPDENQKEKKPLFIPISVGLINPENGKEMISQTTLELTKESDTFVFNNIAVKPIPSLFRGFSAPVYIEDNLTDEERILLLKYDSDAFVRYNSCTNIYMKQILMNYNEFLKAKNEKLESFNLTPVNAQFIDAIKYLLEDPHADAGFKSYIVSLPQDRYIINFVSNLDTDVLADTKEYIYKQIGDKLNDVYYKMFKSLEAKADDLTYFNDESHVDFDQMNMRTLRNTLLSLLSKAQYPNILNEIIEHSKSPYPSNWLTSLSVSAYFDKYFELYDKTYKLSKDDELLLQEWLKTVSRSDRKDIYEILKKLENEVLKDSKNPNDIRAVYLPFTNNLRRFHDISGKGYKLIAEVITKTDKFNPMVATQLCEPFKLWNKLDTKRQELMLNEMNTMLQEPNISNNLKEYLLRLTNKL

[23] = Luminescence Cell-Based Dose Confirmation HTS to Identify Inhibitors of Platelet Dense Granule Release. [Related pubchem assays: 1663 (Primary HTS), 1678 (Summary of Project)]; format: functional
[24] = cytotoxicity toward NIH3T3 fibroblasts, dose response, counter-screen, cell-based, ATP luminescence, mouse fibroblasts (AID 2010); format: functional;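 note: cells exposed to compound for about 90 hours before reading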
[25] = inhibitors of intracellular T. cruzi replication, confirmation, NIH3T3 host cells, beta-gal luminescence (AID 2044); format: functional, cell-based;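 note: intracellular parasites grown in NIH/3T3 mouse fibroblasts as host cells; luminescent beta-galactosidase reporter signal from transgenic T. cruzi replicating inside host cells; inhibitors lower the luminescence signal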
Paired box protein Pax-8 = Paired box protein Pax-8 (Homo sapiens, UniProt Q06710); assay: inhibitors of PAX8-driven TPO luciferase reporter, dose response, RMG-I cells, cherry-pick (AID 687027); format: functional, cell-based;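 note: luciferase reporter driven by Pax8 target thyroperoxidase promoter measured by SteadyGlo luminescence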

T4 sequence (P49327 whole entry, the tested form may be a part): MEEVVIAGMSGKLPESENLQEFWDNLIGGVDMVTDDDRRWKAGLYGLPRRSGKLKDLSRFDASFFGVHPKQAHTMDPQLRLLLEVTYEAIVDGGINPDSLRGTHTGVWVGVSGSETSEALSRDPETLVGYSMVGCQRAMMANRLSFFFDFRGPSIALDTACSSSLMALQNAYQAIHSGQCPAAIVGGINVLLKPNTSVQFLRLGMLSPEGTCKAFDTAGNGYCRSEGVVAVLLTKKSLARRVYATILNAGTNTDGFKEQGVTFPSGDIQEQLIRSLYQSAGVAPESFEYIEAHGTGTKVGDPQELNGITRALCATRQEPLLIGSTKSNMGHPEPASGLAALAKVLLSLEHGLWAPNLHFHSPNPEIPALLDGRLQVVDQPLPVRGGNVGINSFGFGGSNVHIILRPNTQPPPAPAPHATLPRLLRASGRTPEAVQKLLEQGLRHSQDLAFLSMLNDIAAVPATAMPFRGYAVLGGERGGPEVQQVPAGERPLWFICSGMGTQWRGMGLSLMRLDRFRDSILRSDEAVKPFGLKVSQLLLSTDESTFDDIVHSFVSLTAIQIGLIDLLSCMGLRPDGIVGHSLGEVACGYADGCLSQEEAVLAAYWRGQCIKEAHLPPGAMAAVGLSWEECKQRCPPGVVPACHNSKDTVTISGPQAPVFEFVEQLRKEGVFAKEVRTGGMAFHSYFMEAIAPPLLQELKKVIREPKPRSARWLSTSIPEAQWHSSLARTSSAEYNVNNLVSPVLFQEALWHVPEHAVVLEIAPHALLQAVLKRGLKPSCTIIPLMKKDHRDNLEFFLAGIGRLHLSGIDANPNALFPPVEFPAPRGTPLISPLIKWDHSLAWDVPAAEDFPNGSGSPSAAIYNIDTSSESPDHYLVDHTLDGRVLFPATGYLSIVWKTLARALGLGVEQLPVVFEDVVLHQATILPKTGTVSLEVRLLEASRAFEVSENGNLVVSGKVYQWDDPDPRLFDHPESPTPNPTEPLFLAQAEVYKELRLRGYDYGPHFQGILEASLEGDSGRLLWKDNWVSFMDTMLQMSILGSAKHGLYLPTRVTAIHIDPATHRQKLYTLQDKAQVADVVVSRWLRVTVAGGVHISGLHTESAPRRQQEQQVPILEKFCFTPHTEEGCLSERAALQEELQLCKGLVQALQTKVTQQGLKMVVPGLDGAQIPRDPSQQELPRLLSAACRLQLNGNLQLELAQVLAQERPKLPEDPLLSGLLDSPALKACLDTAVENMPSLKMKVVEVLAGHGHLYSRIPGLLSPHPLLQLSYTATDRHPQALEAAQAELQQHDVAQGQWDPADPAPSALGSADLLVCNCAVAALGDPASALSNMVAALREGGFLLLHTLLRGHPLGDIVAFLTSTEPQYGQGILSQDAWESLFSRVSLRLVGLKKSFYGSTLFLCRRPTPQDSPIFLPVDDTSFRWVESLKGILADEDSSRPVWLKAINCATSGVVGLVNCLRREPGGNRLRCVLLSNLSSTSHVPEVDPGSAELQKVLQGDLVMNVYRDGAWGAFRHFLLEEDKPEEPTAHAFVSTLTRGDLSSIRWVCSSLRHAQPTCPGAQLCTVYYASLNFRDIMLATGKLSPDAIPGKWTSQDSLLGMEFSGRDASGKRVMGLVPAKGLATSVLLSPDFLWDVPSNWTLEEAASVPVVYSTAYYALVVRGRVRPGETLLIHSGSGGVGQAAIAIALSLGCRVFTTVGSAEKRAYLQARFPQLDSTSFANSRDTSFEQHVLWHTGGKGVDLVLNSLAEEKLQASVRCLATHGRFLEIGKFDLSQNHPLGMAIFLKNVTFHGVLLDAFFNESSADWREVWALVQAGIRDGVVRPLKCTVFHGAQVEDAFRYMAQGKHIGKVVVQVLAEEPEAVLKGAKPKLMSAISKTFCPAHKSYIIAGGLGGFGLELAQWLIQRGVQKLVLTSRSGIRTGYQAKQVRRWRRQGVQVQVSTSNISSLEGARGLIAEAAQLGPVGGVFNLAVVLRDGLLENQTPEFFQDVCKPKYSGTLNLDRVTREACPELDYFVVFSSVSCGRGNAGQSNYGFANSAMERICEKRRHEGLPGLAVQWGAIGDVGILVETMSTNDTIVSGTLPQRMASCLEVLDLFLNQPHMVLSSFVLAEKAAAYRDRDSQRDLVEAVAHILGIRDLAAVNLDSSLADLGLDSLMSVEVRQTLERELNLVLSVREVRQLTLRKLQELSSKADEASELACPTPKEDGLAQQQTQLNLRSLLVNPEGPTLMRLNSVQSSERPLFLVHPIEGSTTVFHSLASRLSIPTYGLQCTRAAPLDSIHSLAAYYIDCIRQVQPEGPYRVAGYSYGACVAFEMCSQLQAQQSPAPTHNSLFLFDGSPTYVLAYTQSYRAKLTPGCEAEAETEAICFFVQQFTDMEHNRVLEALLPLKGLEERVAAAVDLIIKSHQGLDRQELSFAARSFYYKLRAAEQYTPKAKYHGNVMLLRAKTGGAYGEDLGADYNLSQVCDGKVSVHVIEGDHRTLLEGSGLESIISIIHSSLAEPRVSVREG
Sequence of Beta Lactamase (Q932Y6 whole entry, the tested form may be a part): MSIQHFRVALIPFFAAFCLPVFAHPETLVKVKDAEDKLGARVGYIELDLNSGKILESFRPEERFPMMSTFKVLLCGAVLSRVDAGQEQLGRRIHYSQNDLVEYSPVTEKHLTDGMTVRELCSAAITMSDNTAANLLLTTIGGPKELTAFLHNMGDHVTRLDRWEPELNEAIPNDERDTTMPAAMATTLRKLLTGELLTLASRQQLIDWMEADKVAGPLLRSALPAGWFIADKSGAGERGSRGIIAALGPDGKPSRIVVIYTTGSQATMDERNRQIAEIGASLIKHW
Sequence of Arf-GAP with SH3 domain, ANK repeat and PH domain-containing protein 1 (Q9ULH1 whole entry, the tested form may be a part): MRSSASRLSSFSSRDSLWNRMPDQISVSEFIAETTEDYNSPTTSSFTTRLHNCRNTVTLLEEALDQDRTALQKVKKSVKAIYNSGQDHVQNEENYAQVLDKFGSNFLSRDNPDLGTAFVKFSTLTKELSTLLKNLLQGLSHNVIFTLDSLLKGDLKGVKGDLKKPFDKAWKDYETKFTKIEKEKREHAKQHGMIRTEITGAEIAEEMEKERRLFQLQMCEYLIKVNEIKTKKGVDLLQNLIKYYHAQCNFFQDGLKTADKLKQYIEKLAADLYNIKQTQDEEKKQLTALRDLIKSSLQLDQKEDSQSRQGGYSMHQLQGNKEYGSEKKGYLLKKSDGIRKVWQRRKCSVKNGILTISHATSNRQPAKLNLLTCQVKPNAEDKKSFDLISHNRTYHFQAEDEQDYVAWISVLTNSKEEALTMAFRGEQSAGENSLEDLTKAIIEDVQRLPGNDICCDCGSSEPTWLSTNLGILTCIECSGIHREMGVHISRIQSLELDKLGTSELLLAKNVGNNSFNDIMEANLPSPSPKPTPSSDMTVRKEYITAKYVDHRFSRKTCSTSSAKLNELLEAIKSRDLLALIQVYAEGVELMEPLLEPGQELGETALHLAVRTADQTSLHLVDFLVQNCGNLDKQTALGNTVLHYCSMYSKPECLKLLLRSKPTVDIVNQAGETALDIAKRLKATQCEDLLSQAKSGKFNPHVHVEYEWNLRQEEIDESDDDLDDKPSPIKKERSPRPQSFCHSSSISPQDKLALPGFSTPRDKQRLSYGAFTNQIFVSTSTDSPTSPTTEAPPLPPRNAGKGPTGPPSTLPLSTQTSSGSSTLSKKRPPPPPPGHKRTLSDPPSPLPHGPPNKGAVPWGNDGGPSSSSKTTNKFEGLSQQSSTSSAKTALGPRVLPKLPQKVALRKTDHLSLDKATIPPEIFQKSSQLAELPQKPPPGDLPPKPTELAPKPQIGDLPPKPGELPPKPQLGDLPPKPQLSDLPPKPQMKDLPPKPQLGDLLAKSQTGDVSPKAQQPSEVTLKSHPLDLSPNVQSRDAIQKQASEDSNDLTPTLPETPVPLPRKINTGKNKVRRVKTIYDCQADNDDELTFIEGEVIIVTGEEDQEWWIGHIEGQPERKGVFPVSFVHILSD
Sequence of ADP-ribosylation factor GTPase-activating protein 1 (Q62848 whole entry): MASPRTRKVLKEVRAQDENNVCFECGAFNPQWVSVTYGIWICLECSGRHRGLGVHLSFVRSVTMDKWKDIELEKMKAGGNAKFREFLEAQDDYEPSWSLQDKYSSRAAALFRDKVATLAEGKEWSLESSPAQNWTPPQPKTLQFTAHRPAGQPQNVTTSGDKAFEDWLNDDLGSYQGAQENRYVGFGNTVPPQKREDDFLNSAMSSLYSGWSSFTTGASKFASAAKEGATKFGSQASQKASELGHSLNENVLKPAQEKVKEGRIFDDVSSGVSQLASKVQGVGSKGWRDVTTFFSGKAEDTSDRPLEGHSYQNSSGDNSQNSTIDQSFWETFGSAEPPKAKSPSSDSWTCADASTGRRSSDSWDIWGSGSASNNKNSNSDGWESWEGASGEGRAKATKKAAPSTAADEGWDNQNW
Sequence of Fructose-bisphosphate aldolase (P9WQA3 whole entry, the tested form may be a part): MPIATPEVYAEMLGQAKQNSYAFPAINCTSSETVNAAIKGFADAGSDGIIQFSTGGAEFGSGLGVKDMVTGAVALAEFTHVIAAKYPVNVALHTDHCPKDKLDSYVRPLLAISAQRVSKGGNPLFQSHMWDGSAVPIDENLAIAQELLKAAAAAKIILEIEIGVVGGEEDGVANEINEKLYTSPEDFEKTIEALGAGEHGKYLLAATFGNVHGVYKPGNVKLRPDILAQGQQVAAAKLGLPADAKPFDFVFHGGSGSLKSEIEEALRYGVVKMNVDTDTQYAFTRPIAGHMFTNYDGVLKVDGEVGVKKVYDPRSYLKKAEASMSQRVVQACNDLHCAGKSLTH

## NC(=O)CCC(C(=O)O)N1C(=O)c2ccc(O)cc2C1=O (stereo not drawn)
[1]
  IC50: 23.9 µM (inactive)
[2]
  EC50: > 195 µM (not active)
[3]
  IC50: 16.9 µM (active)

## c1ccc(CCNCCCOc2cccc3ccccc23)cc1
[4]
  CC50: 75.9 µM (active)
[5]
  IC50: 156 µM (active)

## COc1ccc(S(=O)(=O)N(CCCN2CCCC2=O)Cc2cc3c(C)cc(C)cc3nc2O)cc1
[6]
  IC50: > 3.33 µM (active)

## Cc1coc2c1c(C)cc1oc(=O)c(CC(=O)NCCCN3CCCC3=O)c(C)c12
[6]
  IC50: 1.43 µM (active)

## CCOC(=O)[C@]12Cc3cc(Cl)ccc3[C@H]1N(C1CCCCC1)C(=O)c1cc(OC)ccc12
Fatty acid synthase [7]
  IC50: 3.04 µM (active)
Beta Lactamase
  IC50: 16.8 µM (inactive)
Fatty acid synthase [8]
  IC50: 2.71 µM (active)
[9]
  IC50: 11.7 µM (inactive)

## COc1ccc(N2C(=O)C3C(C2=O)C(C(=O)c2ccccc2)N2CCCC32)cc1 (stereo not drawn)
[1]
  IC50: 31 µM (inactive)
[3]
  IC50: 11 µM (active)

## C[C@H](CO)N1C[C@H](C)[C@@H](CN(C)Cc2ccc(C(F)(F)F)cc2)Oc2c(NC(=O)c3ccncc3)cccc2C1=O
[10]
  AC50: 0.105 µM (active)
[11]
  IC50: 3.79 µM (inactive)
[12]
  IC50: 41.4 µM (inactive)
[13]
  IC50: 36.1 µM (inactive)
[14]
  IC50: 7.22 µM (inactive)
[15]
  IC50: 3.79 µM (inactive)

## Cc1ccc2nc(SCC(=O)N3CCC(C)CC3)nc(=O)n2c1
[16]
  IC50: 22.9 µM (inactive)
[17]
  IC50: 26.2 µM (inactive)

## COc1ccc(NC(=O)COC(=O)CCCOc2ccc(Cl)cc2Cl)cc1
[18]
  IC50: 83.3 µM (inactive)

## Nc1ccc(-c2nc3ccc(N)cc3s2)cc1
[19]
  AC50: > 52 µM (inactive)
[20]
  AC50: 7.01 µM (active)
[4]
  CC50: 100 µM (active)
[21]
  AC50: 7.8 µM (active)
[22]
  EC50: 8.6 µM (active)
Aminopeptidase N
  IC50: 21.3 µM (active)
[23]
  EC50: 17.5 µM (active)
[5]
  IC50: 70.2 µM (active)

## COc1ccc(OC)c2sc(N(CCCN(C)C)C(=O)CCS(=O)(=O)c3ccccc3)nc12
[24]
  EC50: 6.44 µM (active)
[25]
  EC50: 4.32 µM (active)
Paired box protein Pax-8
  AC50: 4.77 µM (active)
Beta Lactamase
  IC50: 32.1 µM (inactive)
[9]
  IC50: 2.06 µM (active)

## C[C@H]1CN([C@@H](C)CO)C(=O)c2cccc(NC(=O)c3ccncc3)c2O[C@H]1CN(C)Cc1ccc(-c2ccccc2)cc1
[10]
  AC50: 0.08 µM (active)
[11]
  IC50: 3.21 µM (inactive)
[12]
  IC50: > 100 µM (inactive)
[13]
  IC50: 47.5 µM (inactive)
[14]
  IC50: 11.2 µM (inactive)
[15]
  IC50: 3.21 µM (inactive)

## COc1cccc(NC(=O)Cn2nnc(C(=O)Nc3cc(Cl)ccc3OC)c2N)c1
[16]
  IC50: 8.8 µM (active)
[17]
  IC50: 5.04 µM (active)

From ChEMBL document CHEMBL1201862, “PubChem BioAssay data set” (2004)
